Patent US20020022022A1, “Inhibition of cell proliferation and matrix synthesis by antioxidants and NAD(P)H oxidase inhibitors” (priority 2000, published 2002)

Columns and labels:
[1] = system: superoxide anion (—O2^−) generation in coronary media; assay: —O2^− production in uninjured coronary media (SOD-inhibitable NBT reduction); type: cell-based, pigs; settings: DETCA 10 mM
Method: (§1) The production of —O2^− is measured by superoxide dismutase- (SOD) or tiron-inhibitable conversion of nitroblue tetrazolium (NBT) to formazan. (20,21)
—O2^− production in coronary arteries: Coronary arteries are dissected free from adipose tissue and myocardium and then cut into ˜5 mm rings and placed in 24-well plates. Tissues are balanced in phenol-free DMEM at 37° C. in a CO2 incubator for 30 minutes with or without addition of SOD (SOD, 1000 unit/ml) or tiron (10 mM), both scavengers of —O2^− Freshly made NBT (100 mg/L in phenol-free DMEM) is added to the tissues with a gentle rocking for 3 hours. The reaction is terminated by addition of equal volume of 0.5N HCl, and tissues are rinsed twice with cold PBS. To extract formazan, tissues are pulverized in liquid nitrogen and dissolved in 100% pyridine at 80° C. for 30 minutes. After centrifugation, light absorbance is read in supernatants at 540 nm. The NBT reduction to formazan is calculated using the following formula: NBT reduction=A×V/(T×E×L) (A: absorbance; V: volume of solubilizing solution; T: time of incubation with NBT (minutes); E: extinction coefficient=0.72 mmol.mm; L: length of light travel through the solution, 10 mm). Either SOD- or tiron-inhibitable NBT reduction is calculated as measures of —O2^− production (pmol/min/mg wet weight). […]

[2] = system: superoxide anion (—O2^−) generation in coronary adventitia; assay: —O2^− production in uninjured coronary adventitia (SOD-inhibitable NBT reduction); type: cell-based, pigs; settings: uninjured coronary adventitia; DETCA 10 mM
Method: as §1
—O2^− production in coronary arteries: Coronary arteries are dissected free from adipose tissue and myocardium and then cut into ˜5 mm rings and placed in 24-well plates. Tissues are balanced in phenol-free DMEM at 37° C. in a CO2 incubator for 30 minutes with or without addition of SOD (SOD, 1000 unit/ml) or tiron (10 mM), both scavengers of —O2^− Freshly made NBT (100 mg/L in phenol-free DMEM) is added to the tissues with a gentle rocking for 3 hours. The reaction is terminated by addition of equal volume of 0.5N HCl, and tissues are rinsed twice with cold PBS. To extract formazan, tissues are pulverized in liquid nitrogen and dissolved in 100% pyridine at 80° C. for 30 minutes. After centrifugation, light absorbance is read in supernatants at 540 nm. The NBT reduction to formazan is calculated using the following formula: NBT reduction=A×V/(T×E×L) (A: absorbance; V: volume of solubilizing solution; T: time of incubation with NBT (minutes); E: extinction coefficient=0.72 mmol.mm; L: length of light travel through the solution, 10 mm). Either SOD- or tiron-inhibitable NBT reduction is calculated as measures of —O2^− production (pmol/min/mg wet weight). To determine the pathways mediating —O2^− production, several inhibitors are used in the experiments, including diphenyleneiodonium (DPI, 100 μM), rotenone (ROT, 50 μM), oxypurinol (OXY, 300 μM), N^ω-nitro-L-arginine methyl ester (L-NAME, 1 mM), and diethyldithio-carbamic acid (DETCA, 10 mM). The n value represents the number of vascular rings obtained from at least 3 animals per experimental condition.

## CCN(CC)C(=S)S [DETCA, diethyldithio-carbamic acid]
[1]
  —O2^− generation in media with SOD inhibitor: 36.3 ± 8.2 pmol/mg/min
[2]
  —O2^− generation in adventitia with SOD inhibitor: 19.6 ± 2.5 pmol/mg/min
